Patent publication US9708251B2, “Unsaturated fatty alcohol alkoxylates from natural oil metathesis” (Stepan Company, priority 2012, dated 2017)

Experiments:
[1] = Emulsion stability testing of nonionic emulsifiers, aromatic solvent series; assay type: physicochemical; design: key to 24 h separation, appearance / 1 h separation, appearance / 1 h separation, amount: C = creamy; CO = creamy oil; O = oil; GC = gritty cream; NS = no separation; OC = oily cream; key to Spon. (spontaneity): G = good; F = fair; P = poor
[2] = Emulsion stability testing of nonionic emulsifiers, Hallcomid solvent series; assay type: physicochemical; design: key to 24 h separation, appearance / 1 h separation, appearance / 1 h separation, amount: C = creamy; CO = creamy oil; O = oil; GC = gritty cream; NS = no separation; OC = oily cream; key to Spon. (spontaneity): G = good; F = fair; P = poor
[3] = Surfactant phase behavior study (cross-polarized microscopy); assay type: physicochemical; details: room temperature, in deionized water
Outline: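 Saturated analogs serve as comparators. Water dilutions of the product, stepped at 2-4% near transitions, equilibrated between slide and cover glass and assigned phase by cross-polarized microscopy texture at 100-400×, 20-22° C. Boundaries lie within ±5% actives; some samples checked by viscosity at 25° C.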

[4] = Performance as a latex paint additive (formulation, KU, rating); details: initial KU of 90; additive 1% active based on latex solids
Method: Titanium dioxide slurry (Dupont Ti-Pure® R746) is charged to a container, followed by deionized water and propylene glycol, and the contents are mixed (500 rpm). […] The pH is adjusted to 9.0 using ammonium hydroxide solution. The batch is mixed for 30 min. and then allowed to stand for at least 2 h. […] Viscosity is adjusted to an initial KU of 90 with more thickener.

[5] = Emulsion stability testing of nonionic emulsifiers, Hallcomid solvent series; assay type: physicochemical; design: key: C = creamy; CO = creamy oil; O = oil; GC = gritty cream; NS = no separation; OC = oily cream; details: Bifenthrin 240 g/L in Hallcomid M-8-10, 34 ppm water
[6] = 2,4-D ester 480 g/L in Exxsol D-110, 34 ppm water
[7] = 2,4-D ester 480 g/L in Exxsol D-110, 1000 ppm water
[8] = Bifenthrin 240 g/L in Aromatic 100, 34 ppm water
[9] = Bifenthrin 240 g/L in Aromatic 100, 1000 ppm water
[10] = Tebuconazole 360 g/L in N-methyl-2-pyrrolidone, 34 ppm water
[11] = Tebuconazole 360 g/L in N-methyl-2-pyrrolidone, 1000 ppm water
[12] = 2,4-D diester 480 g/L in Hallcomid M-8-10, 34 ppm water
[13] = 2,4-D diester 480 g/L in Hallcomid M-8-10, 1000 ppm water
[14] = Bifenthrin 240 g/L in Hallcomid M-8-10, 34 ppm water
[15] = Bifenthrin 240 g/L in Hallcomid M-8-10, 1000 ppm water
[16] = Tebuconazole 360 g/L in Hallcomid M-8-10, 34 ppm water
[17] = Tebuconazole 360 g/L in Hallcomid M-8-10, 1000 ppm water

CCC=CCCCCCCCCOCCOCCOCCOCCOCCOCCOCCOCCOCCOCCOCCOCCOCCOCCOCCO (mixture of isomers) [A12-16]
1 h separation, amount [1, 6]: 3.9 mL
1 h separation, appearance [1, 6]: C
24 h separation, amount [1, 6]: 5.3 mL
24 h separation, appearance [1, 6]: C
Spon. (spontaneity) [1, 6]: P
1 h separation, amount [1, 7]: 2.9 mL
1 h separation, appearance [1, 7]: C
24 h separation, amount [1, 7]: 4 mL
24 h separation, appearance [1, 7]: C
Spon. (spontaneity) [1, 7]: P
1 h separation, amount [1, 8]: 5.9 mL
1 h separation, appearance [1, 8]: C
24 h separation, amount [1, 8]: 6 mL
24 h separation, appearance [1, 8]: C
Spon. (spontaneity) [1, 8]: F
1 h separation, amount [1, 9]: 5.5 mL
1 h separation, appearance [1, 9]: C
24 h separation, amount [1, 9]: 5 mL
24 h separation, appearance [1, 9]: C
Spon. (spontaneity) [1, 9]: P
1 h separation, amount [1, 10]: 1.8 mL
1 h separation, appearance [1, 10]: CO
24 h separation, amount [1, 10]: 3 mL
24 h separation, appearance [1, 10]: GC
Spon. (spontaneity) [1, 10]: F
1 h separation, amount [1, 11]: 1.9 mL
1 h separation, appearance [1, 11]: CO
24 h separation, amount [1, 11]: 3 mL
24 h separation, appearance [1, 11]: GC
Spon. (spontaneity) [1, 11]: F
1 h separation, amount [2, 12]: 4.5 mL
1 h separation, appearance [2, 12]: C
24 h separation, amount [2, 12]: 8.5 mL
24 h separation, appearance [2, 12]: C
Spon. (spontaneity) [2, 12]: P
1 h separation, amount [2, 13]: 4 mL
1 h separation, appearance [2, 13]: C
24 h separation, amount [2, 13]: 7 mL
24 h separation, appearance [2, 13]: C
Spon. (spontaneity) [2, 13]: P
1 h separation, amount [2, 14]: NS
Spon. (spontaneity) [2, 14]: G
1 h separation, amount [2, 15]: 6.2 mL
1 h separation, appearance [2, 15]: CO
24 h separation, amount [2, 15]: 2 O, 3.6 CO
Spon. (spontaneity) [2, 15]: F
1 h separation, amount [2, 16]: 1.5 mL
1 h separation, appearance [2, 16]: C
24 h separation, amount [2, 16]: 3 mL
24 h separation, appearance [2, 16]: C
Spon. (spontaneity) [2, 16]: F
1 h separation, amount [2, 17]: 1.5 mL
1 h separation, appearance [2, 17]: C
24 h separation, amount [2, 17]: 3 mL
24 h separation, appearance [2, 17]: C
Spon. (spontaneity) [2, 17]: F
Cubic phase region [3]: 30-57 % Actives Level
Hexagonal phase region [3]: 60-70 % Actives Level
Paste phase region [3]: 93-100 % Actives Level
final KU of paint after 24 h [4]: 93-100 KU
24 h separation, amount [5]: NS
